Experimental data published in patent US20190388494A1, “THERAPEUTIC COMBINATIONS FOR THE TREATMENT OF BACTERIAL INFECTIONS” (SETLANCE S.R.L., priority 2017, published 2019).
Values after ≈ are worked out from the molar mass of the structure shown. Read-outs that look alike come from different tables or passages of the source.

Key:
P. aeruginosa 854 [1] = test: microbe, parasite or virus in culture; assay type: cell-based, Pseudomonas aeruginosa
Method: (§1) Activity of SET-M33 and antibiotics was evaluated on six well characterized clinical strains. The strains were selected according to their resistance phenotypes and genotypes.
(§2) MICs were determined using a standard broth microdilution assay according to the guidelines of the Clinical and Laboratory Standards Institute.

A. baumannii VA566/00 [2] = test: MIC, standard broth microdilution; assay type: cell-based; settings: Acinetobacter baumannii
Method: as §1, §2

P. aeruginosa AV65 [3] = test: MIC, standard broth microdilution; assay type: cell-based; settings: Pseudomonas aeruginosa
Method: as §1, §2

A. baumannii N50 [4] = test: microbe, parasite or virus in culture; assay type: cell-based; settings: Acinetobacter baumannii
Method: as §1, §2

K. pneumoniae 044-R [5] = test: microbe, parasite or virus in culture; assay type: cell-based; settings: Klebsiella pneumoniae; agent alone; K. pneumoniae 044-R (XDR, KPC, colR)
Method: as §1, §2

K. pneumoniae KKBO-4 [6] = test: microbe, parasite or virus in culture; assay type: cell-based; settings: Klebsiella pneumoniae, KKBO4
Method: as §1, §2

K. pneumoniae 044-R [7] = test: Antimicrobial activity in combination, checkerboard method; assay type: cell-based, Klebsiella pneumoniae; settings: for MIC in combination, ATB: antimicrobial agent in combination with SET-M33
Method: as §1
(§3) Antimicrobial activity in combination was evaluated, in duplicate for each of the six strains, with the checkerboard method using cation-adjusted Mueller-Hinton broth (MHB) in 96-well microtiter plates (Sarstedt, Inc., Newton, N.C.). Assays were performed using a final bacterial inoculum of 5×10^4 CFU/well in a final volume of 100 μl. Results were recorded after 20 h of incubation at 35° C. The total fractional inhibitory concentration (ΣFIC) for each antibiotic combination was calculated according to EUCAST definitive document E.Def 1.2 [16] as follows: ΣFIC equals FIC of agent A plus FIC of agent B, where the FIC of agent A or B is the MIC of agent A or B in the presence of the other divided by the MIC of agent A or B alone. Results were interpreted according to the following definition: a ΣFIC of ≤0.5 indicated synergism, a ΣFIC of >0.5 to 1 indicated additivity, a ΣFIC of >1 to <2 indicated indifference, and a ΣFIC of ≥2 antagonism.

K. pneumoniae KKBO-4 [8] = test: as above; assay type: cell-based, Klebsiella pneumoniae; settings: for MIC in combination, ATB: antimicrobial agent in combination with SET-M33
Method: as §1, §3

P. aeruginosa 854 [9] = test: as above; assay type: cell-based, Pseudomonas aeruginosa; settings: for MIC in combination, ATB: antimicrobial agent in combination with SET-M33
Method: as §1, §3

P. aeruginosa AV65 [10] = test: as above; assay type: cell-based, Pseudomonas aeruginosa; settings: for MIC in combination, ATB: antimicrobial agent in combination with SET-M33
Method: as §1, §3

A. baumannii N50 [11] = test: as above; assay type: cell-based, Acinetobacter baumannii; settings: for MIC in combination, ATB: antimicrobial agent in combination with SET-M33
Method: as §1, §3

A. baumannii VA566/00 [12] = test: as above; assay type: cell-based, Acinetobacter baumannii; settings: for MIC in combination, ATB: antimicrobial agent in combination with SET-M33
Method: as §1, §3

[13] = tested on: 6 MDR/XDR Gram-negative strains; assay type: cell-based
Method: as §1, §2

[14] = tested on: 6 MDR/XDR Gram-negative strains; test: Checkerboard combination testing, summary over the six strains; assay type: cell-based
Method: as §1, §3

[15] = Pseudomonas aeruginosa, agent alone, P. aeruginosa 854 (XDR, VIM-1), read-out: MIC
[16] = agent alone, A. baumannii N50 (MDR, OXA-24, colR), read-out: MIC
[17] = agent alone, K. pneumoniae KKBO-4 (XDR, KPC, colR), read-out: MIC
[18] = SET-M33 in combination with aztreonam
[19] = SET-M33 in combination with meropenem
[20] = SET-M33 in combination with rifampin
[21] = SET-M33 in combination with tobramycin

## CO[C@H]1/C=C/O[C@@]2(C)Oc3c(C)c(O)c4c(O)c(c(/C=N/N5CCN(C)CC5)c(O)c4c3C2=O)NC(=O)/C(C)=C\C=C\[C@H](C)[C@H](O)[C@@H](C)[C@@H](O)[C@@H](C)[C@H](OC(C)=O)[C@@H]1C [rifampin]
P. aeruginosa 854 [1]; [15]
  MIC: 32 µg/mL (≈ 38.9 µM)
A. baumannii VA566/00 [2]; VA566/00
  MIC: 256 µg/mL (≈ 311 µM)
P. aeruginosa AV65 [3]; AV65
  MIC: 128 µg/mL (≈ 156 µM)
A. baumannii N50 [4]; [16]
  MIC: 64 µg/mL (≈ 77.8 µM)
K. pneumoniae 044-R [5]
  MIC: 64 µg/mL (≈ 77.8 µM)
K. pneumoniae KKBO-4 [6]
  MIC: 128 µg/mL (≈ 156 µM)
K. pneumoniae 044-R [7]
  MIC in combination, ATB: 16 µg/mL
K. pneumoniae KKBO-4 [8]
  MIC in combination, ATB: 32 µg/mL
P. aeruginosa 854 [9]
  MIC in combination, ATB: 8 µg/mL
P. aeruginosa AV65 [10]
  MIC in combination, ATB: 64 µg/mL
A. baumannii N50 [11]
  MIC in combination, ATB: 4 µg/mL
A. baumannii VA566/00 [12]
  MIC in combination, ATB: 2 µg/mL

## NC[C@H]1O[C@H](O[C@H]2[C@H](O)[C@@H](O[C@H]3O[C@H](CO)[C@@H](O)[C@H](N)[C@H]3O)[C@H](N)C[C@@H]2N)[C@H](N)C[C@@H]1O [tobramycin]
P. aeruginosa 854 [1]; [15]
  MIC: 256 µg/mL (≈ 548 µM)
A. baumannii VA566/00 [2]; agent alone, A. baumannii VA566/00 (MDR, OXA-24), read-out: MIC
  MIC: 16 µg/mL (≈ 34.2 µM)
P. aeruginosa AV65 [3]; AV65
  MIC: 128 µg/mL (≈ 274 µM)
A. baumannii N50 [4]; [16]
  MIC: 8 µg/mL (≈ 17.1 µM)
K. pneumoniae 044-R [5]
  MIC: 32 µg/mL (≈ 68.4 µM)
K. pneumoniae KKBO-4 [6]; [17]
  MIC: 32 µg/mL (≈ 68.4 µM)
K. pneumoniae 044-R [7]
  MIC in combination, ATB: 16 µg/mL
K. pneumoniae KKBO-4 [8]
  MIC in combination, ATB: 16 µg/mL
P. aeruginosa 854 [9]
  MIC in combination, ATB: 256 µg/mL
P. aeruginosa AV65 [10]
  MIC in combination, ATB: 128 µg/mL
A. baumannii N50 [11]
  MIC in combination, ATB: 0.5 µg/mL
A. baumannii VA566/00 [12]
  MIC in combination, ATB: 4 µg/mL

## C[C@H]1[C@H](NC(=O)/C(=N\OC(C)(C)C(=O)O)c2csc(N)n2)C(=O)N1S(=O)(=O)O [aztreonam]
P. aeruginosa 854 [1]; Pseudomonas aeruginosa, 854
  MIC: 128 µg/mL (≈ 294 µM)
A. baumannii VA566/00 [2]; VA566/00
  MIC: 512 µg/mL (≈ 1180 µM)
P. aeruginosa AV65 [3]; agent alone, P. aeruginosa AV65 (XDR, IMP-13), read-out: MIC
  MIC: 32 µg/mL (≈ 73.5 µM)
A. baumannii N50 [4]; N50
  MIC: 128 µg/mL (≈ 294 µM)
P. aeruginosa 854 [9]
  MIC in combination, ATB: 64 µg/mL
P. aeruginosa AV65 [10]
  MIC in combination, ATB: 1 µg/mL
A. baumannii N50 [11]
  MIC in combination, ATB: 32 µg/mL
A. baumannii VA566/00 [12]
  MIC in combination, ATB: 16 µg/mL

## CC[C@H](C)[C@H](NC(=O)[C@H](CCCCN)NC(=O)[C@@H](N)CCCCN)C(=O)N[C@@H](CCCNC(=N)N)C(=O)N[C@H](C(=O)N[C@@H](CCCNC(=N)N)C(=O)N[C@@H](CC(C)C)C(=O)N[C@@H](CO)C(=O)N[C@@H](C)C(=O)O)C(C)C (stereo in doubt) [SET-M33]
P. aeruginosa 854 [1]; 854
  MIC: 16 µg/mL (≈ 14.9 µM)
K. pneumoniae 044-R [7]; [18]
  MIC in combination, SET-M33: 8 µg/mL
K. pneumoniae 044-R [7]; [19]
  MIC in combination, SET-M33: 8 µg/mL
K. pneumoniae 044-R [7]; [20]
  MIC in combination, SET-M33: 4 µg/mL
K. pneumoniae 044-R [7]; [21]
  MIC in combination, SET-M33: 16 µg/mL
K. pneumoniae KKBO-4 [8]; [18]
  MIC in combination, SET-M33: 8 µg/mL
K. pneumoniae KKBO-4 [8]; [19]
  MIC in combination, SET-M33: 8 µg/mL
K. pneumoniae KKBO-4 [8]; [20]
  MIC in combination, SET-M33: 4 µg/mL
K. pneumoniae KKBO-4 [8]; [21]
  MIC in combination, SET-M33: 16 µg/mL
P. aeruginosa 854 [9]; [18]
  MIC in combination, SET-M33: 8 µg/mL
P. aeruginosa 854 [9]; [19]
  MIC in combination, SET-M33: 8 µg/mL
P. aeruginosa 854 [9]; [20]
  MIC in combination, SET-M33: 8 µg/mL
P. aeruginosa 854 [9]; [21]
  MIC in combination, SET-M33: 8 µg/mL
P. aeruginosa AV65 [10]; [18]
  MIC in combination, SET-M33: 8 µg/mL
P. aeruginosa AV65 [10]; [19]
  MIC in combination, SET-M33: 4 µg/mL
P. aeruginosa AV65 [10]; [20]
  MIC in combination, SET-M33: 8 µg/mL
P. aeruginosa AV65 [10]; [21]
  MIC in combination, SET-M33: 2 µg/mL
A. baumannii N50 [11]; [18]
  MIC in combination, SET-M33: 4 µg/mL
A. baumannii N50 [11]; [19]
  MIC in combination, SET-M33: 4 µg/mL
A. baumannii N50 [11]; [20]
  MIC in combination, SET-M33: 8 µg/mL
A. baumannii N50 [11]; [21]
  MIC in combination, SET-M33: 8 µg/mL
A. baumannii VA566/00 [12]; [18]
  MIC in combination, SET-M33: 4 µg/mL
A. baumannii VA566/00 [12]; [19]
  MIC in combination, SET-M33: 4 µg/mL
A. baumannii VA566/00 [12]; [20]
  MIC in combination, SET-M33: 4 µg/mL
A. baumannii VA566/00 [12]; [21]
  MIC in combination, SET-M33: 8 µg/mL
[13]
  MIC values: 4 to 32 µg/mL
[14]; SET-M33 in combination with aztreonam, colistin-resistant strains of K. pneumoniae
  interaction in combination (ΣFIC interpretation): synergistic activity
[14]; SET-M33 in combination with ciprofloxacin, data not shown
  interaction in combination (ΣFIC interpretation): Additivity
[14]; SET-M33 in combination with rifampin, colistin-resistant strains of K. pneumoniae
  interaction in combination (ΣFIC interpretation): synergistic activity
[14]; SET-M33 in combination with tobramycin, one of the A. baumannii strains
  interaction in combination (ΣFIC interpretation): Synergy
[14]; when a synergistic effect was present, e.g. with rifampin, aztreonam and tobramycin
  effect of combination on SET-M33 MIC values: moderately affected
[14]; when the effect was additive or indifferent
  effect of combination on SET-M33 MIC values: not affected

## C[C@@H](O)[C@H]1C(=O)N2C(C(=O)O)=C(S[C@@H]3CN[C@H](C(=O)N(C)C)C3)[C@H](C)[C@H]12 [meropenem]
P. aeruginosa 854 [1]; Pseudomonas aeruginosa, 854
  MIC: 512 µg/mL (≈ 1340 µM)
A. baumannii VA566/00 [2]; VA566/00
  MIC: 512 µg/mL (≈ 1340 µM)
P. aeruginosa AV65 [3]; AV65
  MIC: 256 µg/mL (≈ 668 µM)
A. baumannii N50 [4]; N50
  MIC: 256 µg/mL (≈ 668 µM)
K. pneumoniae 044-R [5]
  MIC: 64 µg/mL (≈ 167 µM)
K. pneumoniae KKBO-4 [6]; [17]
  MIC: 64 µg/mL (≈ 167 µM)
K. pneumoniae 044-R [7]
  MIC in combination, ATB: 32 µg/mL
K. pneumoniae KKBO-4 [8]
  MIC in combination, ATB: 32 µg/mL
P. aeruginosa 854 [9]
  MIC in combination, ATB: 16 µg/mL
P. aeruginosa AV65 [10]
  MIC in combination, ATB: 64 µg/mL
A. baumannii N50 [11]
  MIC in combination, ATB: 64 µg/mL
A. baumannii VA566/00 [12]
  MIC in combination, ATB: 4 µg/mL
